Reference: patent publication US20030216319A1, “Specific autoimmune reactions against isomerised/optically inverted epitopes: application for treatment of autoimmune diseases” (priority 2000, published 2003)
*1 amine or outer side, *2 acyl side, *3 side chain or, on linkers, in order; H or OH if unused. Where no end group is shown, it is not given here. [ ]: non-standard residue; d: D form. βAsp = O=C(O)[C@H](CC(=O)[*:2])N[*:1]

Experiments:
[1] = system: auto-antibodies in RA sera; assay: ELISA detection of auto-antibodies in sera on Thy-GA-peptide conjugate coated plates (Example 2); type: binding, human; details: sera diluted one-hundred fold; MTP coated with Thy-GA conjugate 10 μg/ml; absorbency at 450 nm
From the text: It was investigated whether auto-antibodies would recognise an Asn-315 derived septa-peptide and whether such auto-antibodies are a characteristic feature of rheumatoid arthritis. In order to carry out such investigations the IgG Fc Asn-315 derived (βL) septa-peptide Trp-Leu-Asp-β-Gly-Lys-Glu-Tyr, was manufactured synthetically. The peptide used was a preparation of linear (αL form) Trp-Leu-Asn-Gly-Lys-Glu-Tyr peptide heated to promote isomerisation by the following procedure. The peptide was dissolved in the buffer and heated for 4 hours at 90° C. to promote isomerisation and/or optical inversion. The resulting mix of isomerised (βL) optically inverted (αD and βD) and linear (αL) peptides were analysed by RP-HPLC using a 15-35% acetonitrile gradient in 0.1% TFA over 10 minutes with a flow rate of 1 ml/min, and the isomerisation status of the resulting peaks were studied by amino-acid analysis as described above. This peptide was dissolved at 5 mg/ml in 0.2 M Na-Phosphate pH 9.2. […]
0.5 ml thyroglobulin (30 mg/ml) in 0.1 M Na-phosphate buffer pH 8.0, was added drop-wise (over 2 minutes) and under constant mixing to 0.5 mL of the following solution: 10% GA, 40% H2O, 50% 0.2 M Na-Phosphate pH 8.0. […] The final volume was adjusted to 1500 μL and the protein concentration was determined by a BioRad protein assay performed according to the manufacturers instructions. […]

[2] = system: auto-antibodies reactive with isomerised IgG Fc Asn-315 derived peptides; assay: Homogeneous RIA with 125I Thy-GA-Trp-Leu-*Asx-Gly-Lys-Glu-Tyr tracer, competition with peptides (Example 4); type: binding, human; details: highest concentration (10,000 ng/ml); P-0.01 by Student's T-Test
Protocol: A homogeneous RIA assay was developed for measurement of auto-antibodies with reactivity towards the isomerised form of the epitope Trp-Leu-Asn-Gly-Lys-Glu-Tyr derived from the IgG CH2 region. The assay was performed by incubating serum samples with ^125I Thy-GA-Trp-Leu-*Asx-Gly-Lys-Glu-Tyr overnight followed by precipitation of immune-complexes with protein A Sepharose.
Serum samples are diluted 1:200 in IMP buffer (IMP-buffer: 10 mm Na-Phosphate, pH 7.4, 140 mM NaCl, 5 mM EDTA, 0.5% Triton X-100, 0.1% BSA, 10 μg/ml soy-bean trypsin inhibitor). A Thy-GA-Trp-Leu-*Asx-Gly-Lys-Glu-Tyr conjugate is prepared as described in example 2 and iodinated with ^125I using the chloramine T protocol: 100 μg of the conjugate is diluted in 0.25 M Na2HPO4 to a total volume of 140 μl. 1.5 mCi Na^125I is added followed by 10 μL Chloramin-T (1 mg/ml, prepared freshly). The solution is vortexed for 30 seconds and 150 μL methionine (1 mg/ml) is added and immediately vortexed for 120 sec. The tracer is purified on size exclusion column (type: BIOSEP SEC S-2000, size: 300×7.80 mm) equilibrated with PBS containing 1% BSA Plow rate 1.0 ml/min. 500 μl fractions are collected and analysed in a scintillation counter (γ-counter). The fractions containing the tracer are pooled and used in the homogeneous RIA assay format. […]

[3] = system: RA autoantibodies; assay: Competition ELISA: binding of RA autoantibodies to Thy-GA-Trp-Leu-*Asx-Gly-Lys-Glu-Tyr coated plates (Example 3); design: species or system human; details: competitor 50 μl of 50 μg/ml pre-incubated with serum 17 hours at 4° C.; 6 RA sera
Protocol: The Thy-GA-Trp-Leu-*Asx-Gly-Lys-Glu-Tyr conjugate was dissolved in PBS to a final concentration of 10 μg/ml, and 100 μL of this solution is pipetted into the wells of a micro-titre-plate (MTP, flat-well polysorb, Nunc). the plate was blocked as described (Bonde et al 1994), and serum samples diluted one-hundred fold in 10 mM Na-phosphate, 140 mM NaCl, 0.1% tween-20, 1% BSA pH 7.4 (assay buffer) were added. The MTP was left for one hour ±5 minutes on a rotary shaker at 20° C. The plates were washed five times in washing buffer (25 mM tris, 140 mM NaCl, 0.1% tween-20 pH 7.4), by a manual plate washer. One-hundred μL assay buffer containing a one-thousand fold dilution of Perxidase conjugated rabbit anti human λ-chains (Dako 063) and κ-chains (Dako 013) was added into each well. The MTP was again incubated for one hour ±5 minutes on a rotary mixer at 20° C. After 5 times washing, 100 μl of peroxidase substrate was added (3,3′,5,5′ tetramethylbenzidine dihydrochloride (TMB), Kirkegaard & Perry Laboratories, USA) and incubated for 15±2 minutes at room temperature (18-22° C.) in the dark. After addition of 0.18 M H2SO4, the absorbency was measured at 450 nm.
The experiment was carried out as follows. Serum samples were diluted one-hundred fold in 10 mM Na-phosphate, 140 mM NaCl, 0.1% tween-20, 1% BSA pH 7.4 (assay buffer). Two-hundred μl was added to 1.5 ml polypropylene tubes followed by addition of 50 μl of the following reagents dissolved in assay buffer at a concentration of 50 μg/ml:
The tubes were placed at 4° C. for 17 hours, and one-hundred μl of the mixture was added into MTP coated with Thy-GA-Trp-Leu-*Asx-Gly-Lys-Glu-Tyr conjugate. The assay was performed as described above under example 2.

[4] = system: Lewis rats; assay: Induction of Experimental Autoimmune Encephalomyelitis by immunisation with MBP87-99 peptides (Example 7); type: in vivo, rat; details: for incidence of full-blown EAE (clinical score ≧2) / time of minimum weight / reduction of weight compared to PBS controls at minimum: Lewis rats, 200 μg peptide in CFA i.d.; for reduction of weight compared to PBS controls at minimum: 16 days post immunization
From the text: Experimental Autoimmune Encephalomyelitis (EAE) is a paralytical central nervous system (CNS) disease that can be induced readily in susceptible animals by immunisation with myelin proteins. In this experiment MBP87-99 peptides (VHFFKNIVTPRTP) in linear and isomerised forms were used for induction of clinical EAE in Lewis rats.
36 female Lewis (L haplotype, Harlan) rats, 8 weeks of age were used in the experiment.
The animals were randomly assigned to one of the following three treatment groups: 1) a group receiving Asn or isoAsp MBP87-99 peptides 2) a positive control group receiving whole guinea pig MBP, and a negative control receiving PBS. The study was performed in a blinded fashion where the observer was unaware of the treatment of the animal. Below a detailed description of the three treatment groups is provided.
(§1) 1) MBP87-99 Group: Peptides were dissolved in PBS (2 mg/ml). The peptide solution was mixed 1:1 with CFA supplemented with Mycobacterium tubercolosum H37RA, 4 mg/ml and mixed until an emulgate Wars formed. 200 μl emulgate was injected per rat, intra-dermally (i.d.) in the root of the tail (containing 200 μg MBP87-99 and 400 μg Mycobacterium).
The neurological function in immunised animals was evaluated daily. The evaluation was performed blinded by an observer unaware of the treatment groups and codes used in the experiment. This evaluation was performed daily, where the clinical signs of EAE were noted. The clinical signs of EAE were scored according to the following scale: grade 0=no clinical signs, grade 1=tail paralysis or unsteady gait, grade 2=hind leg paraparesis, grade 3=hind leg paralysis, grade 4=complete paralysis (tetraplegia) and grade 5 moribound state or death.
The weight of animals was also measured on a daily basis, as one of the earliest signs of EAE is a weight reduction. The weight of the MBP and peptide immunised animals was compared to the PBS control-group.

[5] = system: Lewis rats; assay: Oral tolerance: feeding of isoAspartyl MBP87-99 before EAE induction (Example 8); type: in vivo, rat
Protocol: 32 female Lewis (L haplotype, Harlan) rats, 8 weeks of age were used in the experiment.
as §1, with “Animals were immunised with the iso-aspartyl form of MBP87-99.” for “1) MBP87-99 Group:”, “mg/).” for “mg/ml).”, “was” for “Wars”
The solutions containing the MBP87-99 isoAspartyl peptides are fed to the animals using a plastic syringe. Control animals are given PBS alone. The effect of the oral administered peptide preparations is investigated at two dosing regimens (one dose 7 days before immunisation vs. 3 doses at one-week intervals before the immunisation. Furthermore, the effect of the dose of orally administered *Asx containing peptide on disease expression is investigated. Rats are fed various amounts of the peptide listed above 14 days before the day of immunisation (day −14) and at day −7 and 0 (day of immunisation). The rats are given either 25, 100 or 500 μg of the peptide, and eight rats are allocated to each treatment regimen as indicated in the table below.
The disease progression was monitored daily by scoring the neurological function in immunized animals as described in example 7. In addition animals were weighed daily. In addition, the animals were sacrificed sixteen days after immunisation for histopathological examination. The rat brains and spinal cords were dissected, fixed in 70% ethanol, containing 5% acetic acid and 4% formalin, dehydrated and embedded in paraffin. Multiple 5 μm thick section were prepared from cerebellum, brain stem, spinal cord C1-4 and L1-6 and stained with hematoxylin-eosin. The frequency of inflammatory infiltrates were scored, using hematoxylineosin stained section, as follows: 0 No inflammation, 1 small number of perivascular infiltration present in the tissue, 2 inflammation with several perivascular infiltrates, and 3 several perivascular infiltrates and tissue necrosis. […]

| Substance | competition of binding of RA autoantibodies to Thy-GA-Trp-Leu-*Asx-Gly-Lys-Glu-Tyr coated plates [3] | autoantibody reactivity of RA RF+ sera compared with RA RF- and control sera (ELISA signal) [1] | reactivity in competition RIA (percent inhibition by competing peptide), group basis [2] | incidence of full-blown EAE (clinical score ≧2) [4] [%] | time of minimum weight [4] [days post immunization] | reduction of weight compared to PBS controls at minimum [4] [%] | further results |
| --- | --- | --- | --- | --- | --- | --- | --- |
| Thy-GA-Glu-Lys-Ala-His-*Asx-Gly-Gly-Arg: another irrelevant Thy-GA conjugate [reference compound] | – | no differentiation between the groups | – | – | – | – | – |
| Thy-GA-Trp-Leu-*Asx-Gly-Lys-Glu-Tyr: peptide coupled to thyroglobulin with glutaraldehyde | able to compete out the binding | – | significant reactivity | – | – | – | – |
| VHFFKNIVTPRTP [Asn MBP87-99, non-modified MBP87-99 peptide, reference compound] | – | – | – | 75 | 16 | 26 | fraction of animals affected by EAE with relatively mild symptoms (clinical score <3) ([4]; scale grade 0-5): one third |
| isoAsp MBP87-99: MBP87-99 peptide (VHFFKNIVTPRTP) in isomerised form, Asn 92 giving iso-Asp (VHFFK[βAsp]IVTPRTP) | – | – | – | 25 | 16 | 19 | EAE development after multiple 500 μg oral feedings ([5]; 500 μg fed at days -14, -7 and 0): complete suppression; EAE development after multiple oral feedings ([5]; fed at days -14, -7 and 0 before immunisation with iso-aspartyl MBP87-99): complete suppression; mean histological score (number of inflammation foci) compared to controls ([5]; multiple oral doses, sixteen days after immunisation, P<0.05): significantly reduced; EAE induction (result in words) ([4]; onset, peak score day and score levels comparable to non-modified control peptide): induced significant EAE; clinical score of all animals affected with EAE ([4]; scale grade 0-5): ≥ 3 |

The next lines start with results.

| competition of binding of RA autoantibodies to Thy-GA-Trp-Leu-*Asx-Gly-Lys-Glu-Tyr coated plates [3] | Substance | autoantibody reactivity of RA RF+ sera compared with RA RF- and control sera (ELISA signal) [1] | reactivity in competition RIA (percent inhibition by competing peptide), group basis [2] | incidence of full-blown EAE (clinical score ≧2) [4] [%] | time of minimum weight [4] [days post immunization] | reduction of weight compared to PBS controls at minimum [4] [%] | further results |
| --- | --- | --- | --- | --- | --- | --- | --- |
| could be competed out | Trp-Leu-*Asx-Gly-Lys-Glu-Tyr | elevated autoantibody reactivity | – | – | – | – | – |
| able to compete out the binding | Trp-Leu-Asp-β-Gly-Lys-Glu-Tyr | – | significant reactivity | – | – | – | – |
